From patent US4996204A, “Pyrido[2,3-d]pyridazinones as aldose reductase inhibitors” (Pfizer Inc., priority 1989, dated 1991)
Values belong to the compound of their own block, whether it stands above or below them.

Molecular target: T1, partially purified aldose reductase enzyme obtained from human placenta (Homo sapiens, UniProt P15121)
T1 construct: partially purified aldose reductase enzyme obtained from human placenta; from tissue; host or cells: human placenta
Assay: inhibition of aldose reductase enzyme activity (procedure of S. Hayman et al. as modified by K. Sestanj et al.)
Assay type: biochemical
Settings: read-out: Percent Inhibition (%) of aldose reductase enzyme activity; for inhibition at 10 µM: 10^-5 M; for inhibition at 1 µM: 10^-6 M; for inhibition at 0.1 µM: 10^-7 M
Source text: Hayman et al., as described in the Journal of Biological Chemistry, Vol. 240, p. 877 (1965) and as modified by K. Sestanj et al. in U.S. Pat. […] In every case, the substrate employed was partially purified aldose reductase enzyme obtained from human placenta.

SMILES: O=C(O)Cc1nn(Cc2nc3cc(C(F)(F)F)ccc3s2)c(=O)c2cccnc12 [Example 15, 6-(5-trifluoromethylbenzothiazole-2-ylmethyl) -5-oxo-6H-pyrido[2,3-d]pyridazine-8-ylacetic acid]
inhibition at 10 µM: 88% | inhibition at 1 µM: 81% | inhibition at 0.1 µM: 74%

SMILES: O=C(O)Cc1nn(Cc2nc3cc(F)ccc3s2)c(=O)c2cccnc12 [Example 16, 6-(5-fluorobenzothiazole-2-ylmethyl)-5-oxo-6H-pyrido[2,3-d]pyridazine-8-ylacetic acid]
inhibition at 10 µM: 94% | inhibition at 1 µM: 91% | inhibition at 0.1 µM: 90%

SMILES: O=C(O)Cc1nn(Cc2nc3cc(F)cc(F)c3s2)c(=O)c2cccnc12 [Example 17]
inhibition at 10 µM: 75% | inhibition at 1 µM: 65% | inhibition at 0.1 µM: 39%

SMILES: O=C(O)Cc1nn(Cc2nc3cc(Br)ccc3o2)c(=O)c2cccnc12 [Example 18, 6-(5-bromobenzoxazole-2-ylmethyl)-5-oxo-6H-pyrido[2,3-d]pyridazine-8-ylacetic acid]
inhibition at 10 µM: 93% | inhibition at 1 µM: 87% | inhibition at 0.1 µM: 31%

The next lines start with the values.

inhibition at 10 µM: 80% | inhibition at 1 µM: 60% | inhibition at 0.1 µM: 8%
SMILES: O=C(O)Cc1nn(Cc2cc3c(Cl)cccc3s2)c(=O)c2cccnc12 [Example 19, 6-(4-chlorobenzothiophene-2-ylmethyl)-5-oxo-6H-pyrido[2,3-d]pyridazine-8-ylacetic acid]

inhibition at 10 µM: 77% | inhibition at 1 µM: 72% | inhibition at 0.1 µM: 43%
SMILES: O=C(O)Cc1nn(Cc2noc(-c3ccccc3C(F)(F)F)n2)c(=O)c2cccnc12 [Example 20, 6-[5-(2-trifluoromethylphenyl)-1,2,4-oxadiazole-3-ylmethyl]-5-oxo-6H-pyrido[2,3-d]pyridazine-8-ylacetic acid]

inhibition at 10 µM: 86% | inhibition at 1 µM: 76% | inhibition at 0.1 µM: 30%
SMILES: O=C(O)Cc1nn(Cc2ccc(Br)cc2F)c(=O)c2cccnc12 [Example 21, 6-(4-bromo-2-fluorobenzyl)-5-oxo-6H-pyrido[2,3-d]pyridazine-8-ylacetic acid]
